Reference: patent US20200316089A1, “1,2-DIHYDRO-3H-PYRAZOL-3-ONE COMPOUNDS AND METHODS OF USING SAME” (Frequency Therapeutics, Inc., priority 2017, published 2020)

Assays:
recombinant human GSK3β = recombinant human GSK3β (Homo sapiens, UniProt P49841); experiment: in vitro enzymatic assay (Kinase-Glo Max) for inhibition of GSK3β; assay type: biochemical; conditions: 10 uM ATP
Method: (§1) Enzymatic activities of compounds of the present disclosure are tested with recombinant human GSK3 using an in vitro enzymatic assay for inhibition GSK3α and GSK3β.
(§2) The assay was performed using Kinase-Glo Max luminescence kinase assay kit (Promega). It measures kinase activity by quantitating the amount of ATP remaining in solution following a kinase reaction. The luminescent signal from the assay is correlated with the amount of ATP present and is inversely correlated with the amount of kinase activity. The compounds were diluted in 10% DMSO) and 5 μl of the dilution was added to a 50 μl reaction so that the final concentration of DMSO is 1% in all of reactions. The enzymatic reactions were conducted at 30° C. for 40 minutes. […] After the enzymatic reaction, 50 μl of Kinase-Glo Max Luminescence kinase assay solution (Promega) was added to each reaction and incubate the plate for 15 minutes at room temperature. Luminescence signal was measured using a BioTek Synergy 2 microplate reader.
(§3) Kinase activity assays were performed in duplicate at each concentration. The luminescence data were analyzed using the computer software, Graphpad Prism. The difference between luminescence intensities in the absence of Kinase (Lut) and in the presence of Kinase (Luc) was defined as 100% activity (Lut−Luc). […]

recombinant human GSK3α = recombinant human GSK3α (Homo sapiens, UniProt P49840); experiment: in vitro enzymatic assay (Kinase-Glo Max) for inhibition of GSK3α; assay type: biochemical; conditions: 10 uM ATP, 0.1 mg/ml GSKtide, 30° C. 40 minutes; read-out: Potency GSK-3alpha
Sequence of recombinant human GSK3α (P49840 whole entry): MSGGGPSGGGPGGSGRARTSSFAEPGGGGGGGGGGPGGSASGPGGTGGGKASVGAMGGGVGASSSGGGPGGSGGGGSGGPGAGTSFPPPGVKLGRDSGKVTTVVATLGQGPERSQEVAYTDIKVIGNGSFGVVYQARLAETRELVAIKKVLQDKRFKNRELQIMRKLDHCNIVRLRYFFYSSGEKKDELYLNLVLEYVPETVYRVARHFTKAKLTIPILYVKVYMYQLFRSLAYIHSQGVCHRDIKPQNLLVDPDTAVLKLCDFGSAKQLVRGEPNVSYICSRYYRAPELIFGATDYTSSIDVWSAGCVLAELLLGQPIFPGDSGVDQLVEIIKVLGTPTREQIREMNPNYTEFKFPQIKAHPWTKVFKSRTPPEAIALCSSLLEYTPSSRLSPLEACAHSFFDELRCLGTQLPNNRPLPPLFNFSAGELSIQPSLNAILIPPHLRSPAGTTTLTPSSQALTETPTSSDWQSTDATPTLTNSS
Method: as §1, §2, §3

[1] = tested on: Lgr5-positive cochlear cells; experiment: Expansion of Lgr5-positive cells (cochlear stem cell expansion, Lgr5-GFP flow cytometry); assay type: cell-based; conditions: 240 h; Lgr5-GFP mouse cochlear cells, 10 days in culture; read-out: Potency (Lgr5-positive cell expansion)
Method: Lgr5-EGFP-IRES-Cre-ER mice (Barker et al., 2007) (http://jaxmice.jax.org/strain/008875.html) are used to analyze the effects of small molecules on cochlear stem cell expansion.
Isolation of stem cells from the inner ear: All animal studies are conducted under an approved institutional protocol according to National Institutes of Health guidelines. For experiments with neonatal mice (postnatal days 1-3), the cochleae are dissected in HBSS and the organ of Corti are separated from the stria vascularis and the modiolus. The organs of Corti are then treated with Cell Recovery Solution (Corning) for 1 h to separate cochlear epithelium from the underlying mesenchyme. Epithelia are then collected and treated with TrypLE (Life Technologies) for 15-20 minutes at 37° C. Single cells obtained by mechanical trituration are filtered (40 μm) and suspended in Matrigel (Corning) for 3D culture. […]
Lgr5-positive cells are quantified after 10 days (D10) in culture in multiple conditions. […] The cells are then stained with propidium iodide (PI) and are analyzed using a flow cytometer for Lgr5-GFP expression. The number of GFP-positive cells and the percentage of GFP-positive cells are quantified.

Sequence of recombinant human GSK3β (P49841 whole entry): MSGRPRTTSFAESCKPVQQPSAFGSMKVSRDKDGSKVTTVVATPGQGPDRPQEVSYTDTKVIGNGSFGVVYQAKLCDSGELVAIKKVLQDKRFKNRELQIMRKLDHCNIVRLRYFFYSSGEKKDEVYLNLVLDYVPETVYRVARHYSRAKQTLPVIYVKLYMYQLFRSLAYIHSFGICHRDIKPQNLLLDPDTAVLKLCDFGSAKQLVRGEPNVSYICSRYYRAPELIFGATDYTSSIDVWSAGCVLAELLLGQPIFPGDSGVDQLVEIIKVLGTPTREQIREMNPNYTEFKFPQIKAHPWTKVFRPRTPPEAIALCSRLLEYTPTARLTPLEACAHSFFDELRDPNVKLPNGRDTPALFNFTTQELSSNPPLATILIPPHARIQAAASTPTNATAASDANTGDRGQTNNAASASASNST

| IC50 (recombinant human GSK3β; 0.1 mg/ml GSKtide, 30° C. 40 minutes, read-out: Potency GSK-3beta) | IC50 (recombinant human GSK3α) | EC50 [1] | inhibition at 10 µM (recombinant human GSK3β; at 10 uM compound, read-out: Potency GSK-3beta: % inhibition) | Structure (SMILES) |
| --- | --- | --- | --- | --- |
| 706 nM | 0.348 µM | > 10 µM | – | O=C(N1CCCCC1)N1CCn2cc(-c3[nH][nH]c(=O)c3-c3cnc4ccccn34)c3cc(F)cc(c32)C1 [Compound I-4] |
| – | 10 µM | > 10 µM | 34% | O=C(N1CCCCC1)N1CCn2cc(-c3c(-c4cnc5ccccn45)[nH][nH]c3=O)c3cc(F)cc(c32)C1 [Compound I-52] |
